Measurements taken from patent US6689397B2, “Identification of snake repellents” (priority 1999, dated 2004).

Experiments:
[1] = tested on: Brown tree snakes (Boiga irregularis); assay: Aerosol tests: 2 s aerosol spray onto snake's head, behavior observed for 5 min; assay type: in vivo; details: single reagents; for activity category from cluster analysis of behaviors (clusters I-V): Ward's method on VM, SM, LAT, TOT, % VM, % SM; for latency to response (movement latency) / movement when sprayed: 2 s aerosol; for latency to response (movement latency): post-hoc comparison with amyl acetate; for movement when sprayed: 5 min observation
Protocol: Brown tree snakes (Boiga irregularis), N=400, were captured on the island of Guam along forest-jungle edge using modified minnow traps with live mice lures or by hand after being spot-lighted on fences. Snakes were individually housed in plastic containers until tested. The holding containers were housed in a military warehouse on Andersen Air Force Base, Guam under a 12:12 light:dark cycle. In general snakes were tested only once. […] Capture of snakes occurred during three separate visits to the island: 1997, 1998, 1999.
Essential oils and individual chemicals were diluted into an inert carrier liquid (water) for the purpose of testing. An emulsifying agent (3× yucca extract) was added to the composition to stabilize the water insoluble essential oils and individual chemicals in aqueous solution. The test formulations consisted of 1% test agent (i.e., a specific essential oil or chemical), 1% 3× yucca extract and 98% water. The formulated contents were held in a reservoir in which a siphon was suspended. Pressurized air, contained in an aerosol can was passed over the orifice of the siphon to create a negative pressure which would drawn the test formulation up through the siphon and eject the formulated contents and pressurized air through a small bore nozzle to create an atomized liquid, i.e. aerosol spray.
For testing, the holding tub was moved to the observation room and the solid lid was replaced with a lid with a screen insert. […] Snakes that became active as a result of the handling were not used in the assay. After a 15 min interval where the snake remained in a coiled position, aerosol was sprayed directly onto the snake's head for 2 s at a distance of 30 mm. Immediately after aerosol application, the observer moved to an observation distance of 3 m. We limited observations to the 5 min following aerosol applications. […] Also, in pilot tests, and with only few exceptions, the escape activity of the snake given an acute (2 s) exposure to the chemical subsided after 5 min.
Behaviors were categorized by a trained observer as follows: VM was a violent, vigorous movement by snakes exposed to the aerosol. This movement was characterized by undirected flailing and vigorous probing of the creases of the test chamber. SM, was characterized as a directed, slow search behavior, often accompanied by tongue flicks. This behavior could also be classified as investigatory behavior. In both cases the duration (s) of these behaviors was noted. The time from the application of the stimulus to the onset of either VM or SM was defined as the latency, LAT-VM and LAT-SM, respectively. For the purposes of analysis we used the latency to the first locomotory behavior, LAT, as the quantifiable metric. TOT was defined as the total amount of time (s) that a snake was engaged in locomatory behavior. The time spent in each locomatory behavior relative to the total active time was defined as % VM and % SM, respectively.
We used a fixed effects analysis of variance for the a priori comparison across chemicals. In the first set of analyses, essential oil was the between measures effects while behavior was the dependent variable. We used a post hoc Tukey's Honest Significance Difference test to isolate differences among test stimuli for each of the behavioral measures. Similar analyses were performed for the single reagents. We also categorized reagents into groups that yielded similar combinations of behaviors using cluster analysis (STATISTICA 1999). Amalgamation of clusters was achieved using Ward's method. This approach is distinct from most clustering algorithms in that it uses an analysis of variance approach to evaluate the distances between clusters. The distance measure used was a Chebychev distance. This approach tends to maximize the number of clusters because it is sensitive to differences among objects along single dimensions. The behavioral dimensions considered were: VM, SM, LAT, TOT, % VM, and % SM.

[2] = tested on: brown treesnakes; details: in vivo; cited from earlier work

| Structure (SMILES) | activity category from cluster analysis of behaviors (clusters I-V) [1] | latency to response (movement latency) [1] | movement when sprayed [1] | irritant to brown treesnakes [2] |
| --- | --- | --- | --- | --- |
| C=CCc1ccc(O)c(OC)c1 [eugenol] | moderately active | – | – | – |
| CC1=CC=C(C(C)C)CC1 [a-terpinene] | only weakly active | longer than amyl acetate | – | – |
| COc1cccc(C=O)c1 [m-anisaldehyde] | most active | – | – | – |
| O=CC=Cc1ccccc1 [cinnamaldehyde] | most active | – | – | – |
| CC1=CCC2CC1C2(C)C (stereo not shown) [a-pinene] | moderately active | – | – | – |
| C/C=C/c1ccc(OC)cc1 [trans-anethole] | most active | – | – | – |
| C=CC(C)(O)CCC=C(C)C (stereo not shown) [linalool] | only weakly active | longer than amyl acetate | – | – |
| COC(=O)c1ccccc1O [methyl salicylate] | most active | – | – | – |
| O=C(O)C=Cc1ccccc1 [cinnamic acid] | did not react | longer than amyl acetate | did not move at all | – |
| CC(C)[C@@H]1CC[C@@H](C)CC1=O [menthone] | highly irritating, but poor at promoting long-term locomatory behavior | – | – | – |
| CC(=O)OC/C=C(\C)CCC=C(C)C [geranyal acetate] | most active | – | – | – |
| CCCC(=O)OCC [ethyl butyrate] | only weakly active | longer than amyl acetate | – | – |
| CC(C)C12CCC(C)(CC1)O2 [1,4-cineole] | most active | – | – | – |
| COC(=O)c1ccccc1N [methyl anthranilate] | highly irritating, but poor at promoting long-term locomatory behavior | – | – | – |
| CC(C)=CCC/C(C)=C\CO [nerol] | moderately active | longer than amyl acetate | – | – |
| CC12CCC(CC1=O)C2(C)C (stereo not shown) [camphor] | did not react | longer than amyl acetate | did not move at all | – |
| CCCCCOC(C)=O [amyl acetate] | highly irritating, but poor at promoting long-term locomatory behavior | shortest | – | – |
| C=C(C)[C@H]1CC=C(C)CC1 [limonene] | only weakly active | longer than amyl acetate | – | – |
| CCOC(=O)Cc1ccccc1 [ethyl phenyl acetate] | moderately active | – | – | – |
| CC(C)=CCC/C(C)=C/CO [geraniol] | did not react | longer than amyl acetate | did not move at all | – |
| c1ccc2ccccc2c1 [Naphthalene] | – | – | – | not an irritant |
| CC(C)=CCCC(C)=CC=O [citral] | most active | – | – | – |
